Reference: ChEMBL document CHEMBL4818984, “Kojic acid-natural product conjugates as mushroom tyrosinase inhibitors” (Eur J Med Chem, 2020)
Active and inactive are the calls of the source. No cut-off for these calls is given here.

Legend:
Tyrosinase [1] = molecular target: T1, Tyrosinase (Agaricus bisporus, UniProt O42713); experiment: Inhibition of mushroom tyrosinase using L-tyrosine as substrate by HPLC analysis
T1 sequence (O42713 whole entry): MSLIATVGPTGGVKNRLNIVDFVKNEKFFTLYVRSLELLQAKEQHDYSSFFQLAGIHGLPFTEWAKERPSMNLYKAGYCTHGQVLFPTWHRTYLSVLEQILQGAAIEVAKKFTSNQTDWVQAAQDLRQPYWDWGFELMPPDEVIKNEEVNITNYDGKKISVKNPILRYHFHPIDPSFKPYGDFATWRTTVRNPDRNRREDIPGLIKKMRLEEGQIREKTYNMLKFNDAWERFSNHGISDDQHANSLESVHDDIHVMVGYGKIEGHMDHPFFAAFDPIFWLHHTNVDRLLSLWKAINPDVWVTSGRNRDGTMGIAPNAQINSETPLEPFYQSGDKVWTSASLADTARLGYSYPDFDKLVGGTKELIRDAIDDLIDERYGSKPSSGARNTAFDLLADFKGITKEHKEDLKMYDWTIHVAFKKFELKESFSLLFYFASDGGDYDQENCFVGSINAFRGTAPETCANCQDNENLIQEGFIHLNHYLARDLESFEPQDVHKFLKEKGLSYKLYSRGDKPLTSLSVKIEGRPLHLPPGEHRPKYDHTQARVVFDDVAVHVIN

Tyrosinase [2] = molecular target: T1, Tyrosinase; experiment: Inhibition of mushroom tyrosinase assessed as reduction in dopachrome formation using L-DOPA as substrate by ELISA
Tyrosinase [3] = molecular target: T1, Tyrosinase; experiment: Competitive inhibition of mushroom tyrosinase using L-DOPA as substrate by Lineweaver-Burk double reciprocal plot analysis
[4] = molecular target: T2, Tyrosinase (Agaricus bisporus) (UniProt O42713); experiment: Non-competitive inhibition of mushroom tyrosinase using L-DOPA as substrate by Lineweaver-Burk double reciprocal plot analysis
T2 sequence (whole entry): T1 sequence (O42713 whole entry)

[5] = Antioxidant activity assessed as DPPH radical scavenging activity at 10 uM; type: functional
B16-F10 [6] = experiment: Antimelanogenic activity against mouse B16-F10 cells assessed as reduction of melanin content at 5 uM measured after 24 hrs by microplate reader assay; type: functional, cell-based
[7] = molecular target: T2, Tyrosinase (Agaricus bisporus); experiment: Potency index, ratio of kojic acid IC50 to compound IC50 for inhibition of mushroom tyrosinase using L-DOPA as substrate by ELISA
B16-F10 [8] = experiment: cells; conditions: Mus musculus
Description: Cytotoxicity against mouse B16-F10 cells assessed as reduction in cell viability by MTT assay

HFF = experiment: cells; conditions: Homo sapiens
Description: Cytotoxicity against human HFF cells assessed as reduction in cell viability by MTT assay

Tyrosinase [9] = molecular target: T1, Tyrosinase; experiment: Inhibition of mushroom tyrosinase using L-tyrosine as substrate measured after 15 mins by microplate reader analysis
[10] = molecular target: T2, Tyrosinase (Agaricus bisporus); experiment: Inhibition of mushroom tyrosinase using L-DOPA as substrate at 0.5 uM in presence of 0.005 to 1.2 mM Cu2+ by ELISA
Tyrosinase [11] = molecular target: T3, Tyrosinase (Homo sapiens, UniProt P14679); experiment: Inhibition of tyrosinase (unknown origin)
T3 sequence (P14679 whole entry): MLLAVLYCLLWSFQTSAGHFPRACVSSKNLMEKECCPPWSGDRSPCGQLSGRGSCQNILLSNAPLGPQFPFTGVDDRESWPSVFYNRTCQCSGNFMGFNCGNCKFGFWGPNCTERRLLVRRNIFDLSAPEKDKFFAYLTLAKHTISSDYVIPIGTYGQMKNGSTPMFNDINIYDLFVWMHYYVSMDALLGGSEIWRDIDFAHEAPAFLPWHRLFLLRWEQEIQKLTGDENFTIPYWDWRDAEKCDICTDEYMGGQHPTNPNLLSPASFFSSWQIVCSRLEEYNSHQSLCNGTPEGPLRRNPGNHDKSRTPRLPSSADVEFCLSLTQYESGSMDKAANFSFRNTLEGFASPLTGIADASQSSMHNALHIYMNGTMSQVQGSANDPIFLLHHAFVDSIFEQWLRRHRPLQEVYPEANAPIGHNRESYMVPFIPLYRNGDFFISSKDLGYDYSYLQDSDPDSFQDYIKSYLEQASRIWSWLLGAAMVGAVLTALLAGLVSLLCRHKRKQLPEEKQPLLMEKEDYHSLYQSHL

Tyrosinase [12] = molecular target: T1, Tyrosinase; experiment: Inhibition of mushroom tyrosinase using L-tyrosine as substrate measured after 30 mins by microplate reader analysis
[13] = compound: COc1cc(C(C)=O)ccc1OCc1cn(Cc2cc(=O)c(O)co2)nn1; experiment: (§1) Mixed-type of inhibition of mushroom tyrosinase assessed as Vmax using L-DOPA as substrate at 0.025 uM measured at 475 nm by Lineweaver-Burk double reciprocal plot analysis (reference value: […] to […] deltaOD/min); conditions: Agaricus bisporus
[14] = compound: Cc1ccc(C(C)C)cc1OCc1cn(Cc2cc(=O)c(O)co2)nn1; experiment: as §1; conditions: Agaricus bisporus
[15] = compound: O=c1cc(OCc2cn(Cc3cc(=O)c(O)co3)nn2)c2ccccc2o1; experiment: as §1; conditions: Agaricus bisporus
[16] = compound: COc1cc(C(C)=O)ccc1OCc1cn(Cc2cc(=O)c(O)co2)nn1; experiment: (§2) Mixed-type of inhibition of mushroom tyrosinase assessed as Vmax using L-DOPA as substrate at 0.05 uM measured at 475 nm by Lineweaver-Burk double reciprocal plot analysis (reference value: […] to […] deltaOD/min); conditions: Agaricus bisporus
[17] = compound: Cc1ccc(C(C)C)cc1OCc1cn(Cc2cc(=O)c(O)co2)nn1; experiment: as §2; conditions: Agaricus bisporus
[18] = compound: O=c1cc(OCc2cn(Cc3cc(=O)c(O)co3)nn2)c2ccccc2o1; experiment: as §2; conditions: Agaricus bisporus
[19] = compound: COc1cc(C(C)=O)ccc1OCc1cn(Cc2cc(=O)c(O)co2)nn1; experiment: (§3) Mixed-type of inhibition of mushroom tyrosinase assessed as Vmax using L-DOPA as substrate at 0.1 uM measured at 475 nm by Lineweaver-Burk double reciprocal plot analysis (reference value: […] to […] deltaOD/min); conditions: Agaricus bisporus
[20] = compound: Cc1ccc(C(C)C)cc1OCc1cn(Cc2cc(=O)c(O)co2)nn1; experiment: as §3; conditions: Agaricus bisporus
[21] = compound: O=c1cc(OCc2cn(Cc3cc(=O)c(O)co3)nn2)c2ccccc2o1; experiment: as §3; conditions: Agaricus bisporus
[22] = compound: COc1cc(C(C)=O)ccc1OCc1cn(Cc2cc(=O)c(O)co2)nn1; experiment: (§4) Mixed-type of inhibition of mushroom tyrosinase assessed as Km using L-DOPA as substrate at 0.025 uM by Lineweaver-Burk double reciprocal plot analysis (reference value: […] to […] mM); conditions: Agaricus bisporus
[23] = compound: Cc1ccc(C(C)C)cc1OCc1cn(Cc2cc(=O)c(O)co2)nn1; experiment: as §4; conditions: Agaricus bisporus
[24] = compound: O=c1cc(OCc2cn(Cc3cc(=O)c(O)co3)nn2)c2ccccc2o1; experiment: as §4; conditions: Agaricus bisporus
[25] = compound: COc1cc(C(C)=O)ccc1OCc1cn(Cc2cc(=O)c(O)co2)nn1; experiment: (§5) Mixed-type of inhibition of mushroom tyrosinase assessed as Km using L-DOPA as substrate at 0.05 uM by Lineweaver-Burk double reciprocal plot analysis (reference value: […] to […] mM); conditions: Agaricus bisporus
[26] = compound: Cc1ccc(C(C)C)cc1OCc1cn(Cc2cc(=O)c(O)co2)nn1; experiment: as §5; conditions: Agaricus bisporus
[27] = compound: O=c1cc(OCc2cn(Cc3cc(=O)c(O)co3)nn2)c2ccccc2o1; experiment: as §5; conditions: Agaricus bisporus
[28] = compound: COc1cc(C(C)=O)ccc1OCc1cn(Cc2cc(=O)c(O)co2)nn1; experiment: (§6) Mixed-type of inhibition of mushroom tyrosinase assessed as Km using L-DOPA as substrate at 0.1 uM by Lineweaver-Burk double reciprocal plot analysis (reference value: […] to […] mM); conditions: Agaricus bisporus
[29] = compound: Cc1ccc(C(C)C)cc1OCc1cn(Cc2cc(=O)c(O)co2)nn1; experiment: as §6; conditions: Agaricus bisporus
[30] = compound: O=c1cc(OCc2cn(Cc3cc(=O)c(O)co3)nn2)c2ccccc2o1; experiment: as §6; conditions: Agaricus bisporus
[31] = compound: O=c1cc(OCc2cn(Cc3cc(=O)c(O)co3)nn2)c2ccccc2o1; experiment: Mixed-type of inhibition of mushroom tyrosinase assessed as Vmax using L-DOPA as substrate at 0.5 uM measured at 475 nm by Lineweaver-Burk double reciprocal plot analysis (reference value: […] deltaOD/min); conditions: Agaricus bisporus

COc1ccc(C=O)cc1O [ISOVANILLIN]
IC50 (Tyrosinase [1]): > 500 µM

Cc1ccc(C(C)C)cc1OCc1cn(Cc2cc(=O)c(O)co2)nn1
IC50 (Tyrosinase [2]): 0.07 µM
Ki (Tyrosinase [3]): 0.09 µM
Kis [4]: 0.21 µM
Activity [5]: inactive
Activity (B16-F10 [6]): Active
Ratio IC50 [7]: 133
IC50 (B16-F10 [8]): 408 µM
IC50 (HFF): 193 µM

C=CCc1ccc(OCc2cn(Cc3cc(=O)c(O)co3)nn2)c(OC)c1
IC50 (Tyrosinase [2]): 1.07 µM
Activity [5]: inactive

CC(=O)c1ccc(OCc2cn(Cc3cc(=O)c(O)co3)nn2)cc1
IC50 (Tyrosinase [2]): 1.21 µM
Activity [5]: inactive

O=Cc1ccc(OCc2cn(Cc3cc(=O)c(O)co3)nn2)cc1
IC50 (Tyrosinase [2]): 1.05 µM
Activity [5]: inactive

COc1cc(C=O)ccc1O [VANILLIN]
IC50 (Tyrosinase [9]): 4100 µM

COC(=O)c1ccc(OCc2cn(Cc3cc(=O)c(O)co3)nn2)cc1
IC50 (Tyrosinase [2]): 0.46 µM
Activity [5]: inactive

Cc1ccc(C(C)C)c(OCc2cn(Cc3cc(=O)c(O)co3)nn2)c1
IC50 (Tyrosinase [2]): 0.69 µM
Activity [5]: inactive

COc1cc(C=O)cc(OC)c1OCc1cn(Cc2cc(=O)c(O)co2)nn1
IC50 (Tyrosinase [2]): 3.75 µM
Activity [5]: inactive

C=CCc1ccc(O)c(OC)c1 [EUGENOL]
IC50 (Tyrosinase [9]): 923 µM

C/C=C/c1ccc(OCc2cn(Cc3cc(=O)c(O)co3)nn2)c(OC)c1
IC50 (Tyrosinase [2]): 0.52 µM
Activity [5]: inactive

O=c1ccc2ccc(OCc3cn(Cc4cc(=O)c(O)co4)nn3)cc2o1
IC50 (Tyrosinase [2]): 0.23 µM
Activity [5]: inactive

COc1ccc(C=O)cc1OCc1cn(Cc2cc(=O)c(O)co2)nn1
IC50 (Tyrosinase [2]): 1.95 µM
Activity [5]: inactive

O=c1cc(OCc2cn(Cc3cc(=O)c(O)co3)nn2)c2ccccc2o1
IC50 (Tyrosinase [2]): 0.02 µM
Ki (Tyrosinase [3]): 0.04 µM
Kis [4]: 0.12 µM
inhibition [10]: inactive
Activity [5]: inactive
Activity (B16-F10 [6]): Active
Ratio IC50 [7]: > 460
IC50 (B16-F10 [8]): 143 µM
IC50 (HFF): 194 µM

COc1cc(C=O)ccc1OCc1cn(Cc2cc(=O)c(O)co2)nn1
IC50 (Tyrosinase [2]): 1.99 µM
Activity [5]: inactive

O=c1cc(Cn2cc(COc3ccc4c(c3)OCO4)nn2)occ1O
IC50 (Tyrosinase [2]): 0.06 µM
Activity [5]: inactive
Ratio IC50 [7]: 133

O=C(O)c1ccc(OCc2cn(Cc3cc(=O)c(O)co3)nn2)cc1
IC50 (Tyrosinase [2]): 3.13 µM
Activity [5]: inactive

C/C=C/c1ccc(O)c(OC)c1
IC50 (Tyrosinase [11]): 33.3 µM

COc1cc(C(C)=O)ccc1OCc1cn(Cc2cc(=O)c(O)co2)nn1
IC50 (Tyrosinase [2]): 0.03 µM
Ki (Tyrosinase [3]): 0.07 µM
Kis [4]: 0.19 µM
Activity [5]: inactive
Ratio IC50 [7]: 133
IC50 (B16-F10 [8]): 416 µM
IC50 (HFF): 213 µM

Oc1ccc2c(c1)OCO2
IC50 (Tyrosinase [12]): 6.7 µM

B1: Tyrosinase (Agaricus bisporus), O42713 (protein)
chain: T1 sequence (O42713 whole entry)
Vmax [13]: 0.232 deltaOD/min
Vmax [14]: 0.241 deltaOD/min
Vmax [15]: 0.21 deltaOD/min
Vmax [16]: 0.208 deltaOD/min
Vmax [17]: 0.219 deltaOD/min
Vmax [18]: 0.176 deltaOD/min
Vmax [19]: 0.183 deltaOD/min
Vmax [20]: 0.192 deltaOD/min
Vmax [21]: 0.122 deltaOD/min
Km [22]: 1580 µM
Km [23]: 1520 µM
Km [24]: 1710 µM
Km [25]: 1920 µM
Km [26]: 1830 µM
Km [27]: 2020 µM
Km [28]: 2110 µM
Km [29]: 2020 µM
Km [30]: 2250 µM
Vmax [31]: 0.021 deltaOD/min
